Target: T1, HER-2 (Homo sapiens, UniProt P04626)
T1 construct: endogenous in cells; host or cells: Calu-3 (ATCC HTB-55) human non-small-cell lung cancer cells
Assay: Inhibition of HER-2 phosphorylation in Calu-3 tumor cell line
Format: cell-based
Settings: compound concentration 1 μM; Calu-3 cells, 16 h incubation; pY 1248 in HER-2; relative to DMSO control; read-out: Percent inhibition of HER-2-phosphorylation
Protocol: Inhibition of HER-2 Phosphorylation in Calu-3 Tumor Cell Line
2×10^5 Calu-3 (ATTC HTB-55) cells per well were plated in a 12-well plate. After 4 days cells were starved for 16 h in Dulbecco's Modified Eagle Medium (DMEM)/0.5% Fetal Calf Serum (FCS)/1% Glutamine. During this 16 h period cells were incubated with a solution of the test compound in dimethylsulfoxide (DMSO), so that the final concentration of the compound is 1 μM and the final volume of DMSO is 0.5%. Afterwards cells were lysed in lyses buffer containing 1% octyl phenol ethoxylate (Triton®X-100), 10% Glycerol, 1 mM Ethylene glycol-bis(2-aminoethylether)-N,N,N′,N′-tetraacetic acid (EGTA), 1.5 mM MgCl2, 150 mM NaCl, 50 mM 4-(2-hydroxyethyl)-1-piperazineethanesulfonic acid (HEPES) buffer pH 7.5, 1 mM Phenylmethylsulfonyl fluoride (PMSF), 10 μg/mL Aprotinin (a naturally occurring protein that is obtained and purified from cow's lungs) and […] Orthovanadate (Na3VO4). Cell lysates were analyzed on a Sodium Dodecyl Sulfate Polyacrylamide Gel Electrophoresis (SDS PAGE) and after transfer to a nitrocellulose membrane detected with an antibody specifically recognizing the pY 1248 in HER-2 (phosphorylated tyrosine residue 1248 of human epidermal receptor 2). After incubation with an anti rabbit antibody coupled to POD (Peroxidase available from Biorad, Munich, Germany) signals were detected by chemiluminescence (ECL, Amersham). Inhibition of HER-2 phosphorylation is calculated as percentage of the control, which is treated with DMSO only. This percentage was calculated according to the following formula: Inhibition in %=100−(Phosphorylated-HER2-Signal of Test Sample*100/Phosphorylated-HER2-Signal DMSO-control).

T1 sequence (P04626 23-1255): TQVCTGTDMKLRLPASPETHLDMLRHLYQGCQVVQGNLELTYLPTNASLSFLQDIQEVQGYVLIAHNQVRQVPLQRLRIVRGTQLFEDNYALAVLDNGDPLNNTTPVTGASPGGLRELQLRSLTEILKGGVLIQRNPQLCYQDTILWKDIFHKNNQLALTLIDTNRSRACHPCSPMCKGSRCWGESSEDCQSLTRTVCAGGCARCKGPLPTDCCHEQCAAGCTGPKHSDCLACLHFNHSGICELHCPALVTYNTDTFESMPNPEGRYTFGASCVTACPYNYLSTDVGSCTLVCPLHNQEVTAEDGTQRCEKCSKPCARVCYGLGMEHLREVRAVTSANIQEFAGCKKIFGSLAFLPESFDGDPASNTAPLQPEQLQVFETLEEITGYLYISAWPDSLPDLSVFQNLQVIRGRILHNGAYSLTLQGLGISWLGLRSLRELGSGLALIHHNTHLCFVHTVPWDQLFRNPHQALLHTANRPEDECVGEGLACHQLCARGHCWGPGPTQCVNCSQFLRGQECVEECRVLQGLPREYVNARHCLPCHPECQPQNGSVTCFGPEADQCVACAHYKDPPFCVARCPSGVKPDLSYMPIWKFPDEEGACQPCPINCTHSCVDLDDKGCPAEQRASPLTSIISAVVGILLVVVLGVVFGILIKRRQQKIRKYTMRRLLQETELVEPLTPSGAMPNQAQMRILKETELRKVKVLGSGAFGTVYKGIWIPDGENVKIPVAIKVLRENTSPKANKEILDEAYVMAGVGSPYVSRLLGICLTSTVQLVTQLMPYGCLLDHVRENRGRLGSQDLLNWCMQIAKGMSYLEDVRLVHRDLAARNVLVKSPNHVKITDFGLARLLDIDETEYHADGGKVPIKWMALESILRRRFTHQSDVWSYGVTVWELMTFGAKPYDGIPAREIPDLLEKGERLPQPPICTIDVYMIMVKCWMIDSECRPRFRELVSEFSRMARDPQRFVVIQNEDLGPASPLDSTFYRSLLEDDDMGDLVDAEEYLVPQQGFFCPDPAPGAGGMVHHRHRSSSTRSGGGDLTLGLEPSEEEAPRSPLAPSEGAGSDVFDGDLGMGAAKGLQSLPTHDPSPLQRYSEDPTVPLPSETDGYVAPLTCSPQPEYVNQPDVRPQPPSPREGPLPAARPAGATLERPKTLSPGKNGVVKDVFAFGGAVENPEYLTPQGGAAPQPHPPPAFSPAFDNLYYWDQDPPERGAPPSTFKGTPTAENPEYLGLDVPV

| SMILES | inhibition at 1 µM [%] |
| --- | --- |
| FC(F)(F)Oc1ccc(C=Cc2nc(COc3ccc(CSCCn4ccnn4)cc3)co2)cc1 [Example 1, 1-[2-(4-{2-[2-(4-Trifluoromethoxy-phenyl)-vinyl]-oxazol-4-ylmethoxy}-benzylsulfanyl)-ethyl]-1H-[1,2,3]triazole] | 65 to 80 |
| [O-][S+](CCn1ccnn1)Cc1ccc(OCc2coc(/C=C/c3ccc(OC(F)(F)F)cc3)n2)cc1 (centres unmarked) [Example 3, 1-[2-(4-{2-[2-(E)-(4-Trifluoromethoxy-phenyl)-vinyl]-oxazol-4-ylmethoxy}-phenylmethanesulfinyl)-ethyl]-1H-[1,2,3]triazole] | > 80 |
| FC(F)(F)c1ccc(C=Cc2nc(COc3ccc(CSCCn4ccnn4)cc3)co2)cc1 [Example 6, 1-[2-(4-{2-[2-(4-Trifluoromethyl-phenyl)-vinyl]-oxazol-4-ylmethoxy}-benzylsulfanyl)-ethyl]-1H-[1,2,3]triazole] | 55 to 65 |
| Fc1cc(C(F)(F)F)ccc1/C=C/c1nc(COc2ccc(CSCCn3ccnn3)cc2)co1 [Example 7, 1-[2-(4-{2-[2-(E)-(2-Fluoro-4-trifluoromethyl-phenyl)-vinyl]-oxazol-4-ylmethoxy}-benzylsulfanyl)-ethyl]-1H-[1,2,3]triazole] | > 80 |
| Fc1cc(Cl)ccc1/C=C/c1nc(COc2ccc(CSCCn3ccnn3)cc2)co1 [Example 9, 1-[2-(4-{2-[2-(E)-(4-Chloro-2-fluoro-phenyl)-vinyl]-oxazol-4-ylmethoxy}-benzylsulfanyl)-ethyl]-1H-[1,2,3]triazole] | 65 to 80 |
| O=S(=O)(CCn1ccnn1)Cc1ccc(OCc2coc(/C=C/c3ccc(C(F)(F)F)cc3F)n2)cc1 [Example 10, 1-[2-(4-{2-[2-(E)-(2-Fluoro-4-trifluoromethyl-phenyl)-vinyl]-oxazol-4-ylmethoxy}-phenylmethanesulfonyl)-ethyl]-1H-[1,2,3]triazole] | 55 to 65 |
| [O-][S+](CCn1ccnn1)Cc1ccc(OCc2coc(/C=C/c3ccc(C(F)(F)F)cc3F)n2)cc1 (centres unmarked) [Example 11, 1-[2-(4-{2-[2-(E)-(2-Fluoro-4-trifluoromethyl-phenyl)-vinyl]-oxazol-4-ylmethoxy}-phenylmethanesulfinyl)-ethyl]-1H-[1,2,3]triazole] | > 80 |

System: not given
Assay: not given
Settings: not given

| SMILES | melting point [°C] |
| --- | --- |
| [O-][S+](CCn1ccnn1)Cc1ccc(OCc2coc(C=Cc3ccc(SC(F)(F)F)cc3)n2)cc1 (centres unmarked) [Example 4, 1-[2-(4-{2-[2-(4-Trifluoromethylsulfanyl-phenyl)-vinyl]-oxazol-4-ylmethoxy}-phenylmethanesulfinyl)-ethyl]-1H-[1,2,3]triazole] | 182 to 184 |

From patent publication US7005526B2, “Thioether derivatives” (Hoffmann-La Roche Inc., priority 2004, dated 2006)
